The source of these data is patent publication US8846704B2, “Thiopyrimidine-based compounds and uses thereof” (YM Biosciences Austraila Pty Ltd, priority 2007, dated 2014).

Broadly, the inhibition is the share of the control response that was lost under treatment.

Holding throughout (format): biochemical
Assay [1] deals with T1, human CSF1-R (FMS) (Homo sapiens, UniProt P07333).
T1 construct: from codon I553 to Q961; GST (N); made in house; host or cells: Sf9 insect cells (baculovirus)
T1 sequence (P07333 553-961): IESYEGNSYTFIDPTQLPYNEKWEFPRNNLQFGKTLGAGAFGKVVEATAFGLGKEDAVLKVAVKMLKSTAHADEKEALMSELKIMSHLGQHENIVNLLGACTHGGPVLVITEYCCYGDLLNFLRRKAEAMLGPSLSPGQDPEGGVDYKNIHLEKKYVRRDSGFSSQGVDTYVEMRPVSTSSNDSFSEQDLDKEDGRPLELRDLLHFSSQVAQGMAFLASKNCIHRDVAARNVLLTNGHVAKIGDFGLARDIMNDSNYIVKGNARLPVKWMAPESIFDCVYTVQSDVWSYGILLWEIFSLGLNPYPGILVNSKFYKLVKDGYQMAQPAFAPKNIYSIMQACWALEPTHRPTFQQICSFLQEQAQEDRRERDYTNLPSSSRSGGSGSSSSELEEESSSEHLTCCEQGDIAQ
Description: Alphascreen tyrosine kinase enzyme assay, CSF-1R (FMS) kinase domain. The settings on record: read-out: FMS, FLT3, or HCK IC50_nM (FMS). As to the method:
(§1) For screening purposes, compounds (in 100% DMSO) were warmed at 37 degrees for at least 20 minutes before use. A […] stock was initially made in assay buffer, where the final concentration of DMSO was 0.3%. The stocks were then diluted in 384 well Optiplates (Packard) where the final concentration of the compound was […].
The kinase domain of human CSF1-R from codon I553 to Q961 was cloned into the pDest20 expression vector (Invitrogen). The CSF1-R plasmid was then transformed into competent DH10Bac cells (Gibco), and the recombinant baculovirus produced prepared for transfection into Sf9 insect cells.
Baculovirus preparations from each of the constructs were infected into either one or five liters of Sf9 cells (Invitrogen) grown in SF-900 medium (Invitrogen) to a cell density of approximately 1-2×10^6 cells/ml. Cells were infected with virus at a MOI of 0.8-3.0. Cells were harvested and lysed. Tyrosine kinase domains were purified by affinity chromatography on a glutathione-agarose column (Scientifix Pty. Ltd. catalog #: GSH-200).
(§2) Kinase assays were performed in 384 well Optiplates (Packard) using an Alphascreen Protein Tyrosine Kinase PY100 detection kit The compounds were pre-incubated with affinity purified PTK domain in the presence of phosphotyrosine assay buffer (10 mM HEPES, pH 7.5, 100 mM MgCl2, 25 mM NaCl, […] and 0.1% Tween 20) for 20 minutes. The compounds were then incubated with substrate in the presence of ATP. The substrate used was susbtrate-1 with the sequence biotin-EGPWLEEEEEAYGWMDF-NH2 [SEQ. ID. NO. 13] (final concentration […]). For HCK 80 μm ATP was used and incubated for 60 minutes. Alphascreen phosphotyrosine acceptor beads followed by streptavidin donor beads at a concentration of 1/100 in stop buffer were added to each well under subdued light and incubated for 2-3 hours., The Alphascreen plates were read on a Packard Fusion Alpha instrument.
Background: In Alpha technology, singlet oxygen from a donor bead excites a nearby acceptor bead.

For assay [2], the target named is T2, FLT-3 tyrosine kinase (Homo sapiens, UniProt P36888).
T2 construct: purchased Upstate Cell Signalling Solutions, CA, USA 14-500
T2 sequence (P36888 27-993): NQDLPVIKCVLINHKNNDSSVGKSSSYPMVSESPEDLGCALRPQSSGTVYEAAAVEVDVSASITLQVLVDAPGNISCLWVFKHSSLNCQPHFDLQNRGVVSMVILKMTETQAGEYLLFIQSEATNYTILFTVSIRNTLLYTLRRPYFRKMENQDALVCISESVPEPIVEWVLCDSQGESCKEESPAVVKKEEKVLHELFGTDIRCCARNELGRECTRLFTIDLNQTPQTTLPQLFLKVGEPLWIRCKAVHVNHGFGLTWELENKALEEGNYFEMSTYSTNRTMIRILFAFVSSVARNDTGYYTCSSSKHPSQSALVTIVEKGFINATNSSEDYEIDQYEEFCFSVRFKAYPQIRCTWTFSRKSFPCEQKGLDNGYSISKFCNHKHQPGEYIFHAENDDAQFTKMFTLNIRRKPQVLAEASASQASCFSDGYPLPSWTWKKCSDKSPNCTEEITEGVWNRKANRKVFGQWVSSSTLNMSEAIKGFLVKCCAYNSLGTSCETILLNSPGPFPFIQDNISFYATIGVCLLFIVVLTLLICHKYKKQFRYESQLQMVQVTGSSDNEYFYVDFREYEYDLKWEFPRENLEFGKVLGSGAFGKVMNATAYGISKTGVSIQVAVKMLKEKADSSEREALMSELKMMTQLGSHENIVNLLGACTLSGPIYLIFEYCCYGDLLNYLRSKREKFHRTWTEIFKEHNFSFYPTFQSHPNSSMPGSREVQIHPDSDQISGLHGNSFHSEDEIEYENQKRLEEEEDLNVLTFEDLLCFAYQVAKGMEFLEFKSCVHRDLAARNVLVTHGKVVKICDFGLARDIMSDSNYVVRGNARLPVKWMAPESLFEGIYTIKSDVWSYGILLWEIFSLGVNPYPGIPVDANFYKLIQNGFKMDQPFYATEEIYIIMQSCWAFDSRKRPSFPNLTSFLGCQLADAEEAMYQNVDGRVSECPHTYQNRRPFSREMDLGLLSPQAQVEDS
Description: Alphascreen tyrosine kinase enzyme assay, FLT-3. The settings on record: FLT3; read-out: FMS, FLT3, or HCK IC50_nM (FLT3). As to the method:
as §1
FLT-3 tyrosine kinase enzyme was purchased from Upstate Cell Signalling Solutions, CA, USA (flt-3 catalog #: 14-500).
as §2

The target in assay [3] is T3, BTK(h) (Homo sapiens, UniProt Q06187).
T3 construct: purchased Upstate Biotechnology (Dundee, UK), KinaseProfiler service
T3 sequence (Q06187 whole entry): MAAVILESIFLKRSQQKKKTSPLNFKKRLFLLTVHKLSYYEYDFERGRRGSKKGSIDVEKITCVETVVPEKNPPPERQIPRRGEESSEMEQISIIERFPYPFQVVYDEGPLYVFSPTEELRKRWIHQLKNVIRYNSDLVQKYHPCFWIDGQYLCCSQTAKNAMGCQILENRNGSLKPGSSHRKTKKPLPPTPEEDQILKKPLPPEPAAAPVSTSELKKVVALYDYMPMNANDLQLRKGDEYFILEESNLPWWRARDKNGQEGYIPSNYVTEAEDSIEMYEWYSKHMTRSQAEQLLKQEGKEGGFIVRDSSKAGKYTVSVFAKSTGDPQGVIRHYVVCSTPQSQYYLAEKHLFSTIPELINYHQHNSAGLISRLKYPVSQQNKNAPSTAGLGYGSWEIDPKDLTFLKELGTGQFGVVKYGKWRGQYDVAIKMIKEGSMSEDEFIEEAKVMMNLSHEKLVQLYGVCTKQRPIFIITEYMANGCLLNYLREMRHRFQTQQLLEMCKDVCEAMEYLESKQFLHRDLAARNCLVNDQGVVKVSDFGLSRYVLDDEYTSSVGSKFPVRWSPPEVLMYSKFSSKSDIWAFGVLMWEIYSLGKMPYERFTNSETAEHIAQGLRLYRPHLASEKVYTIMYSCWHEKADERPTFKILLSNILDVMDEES
Description: Upstate KinaseProfiler enzyme assay, BTK. The conditions noted are these: 500 nM compound; read-out: Percent inhibition at 500 nM BTK(h). An outline of the steps: (§3)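 Outsourced biochemical kinase assays; enzyme stocks at 10× working concentration in MOPS/EDTA/β-mercaptoethanol/Brij-35/glycerol/BSA buffer, pH 7.0.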

For assay [4], the target named is T4, Flt 1(h) (Homo sapiens, UniProt P17948).
T4 construct: purchased Upstate Biotechnology (Dundee, UK), KinaseProfiler service
T4 sequence (P17948 27-1338): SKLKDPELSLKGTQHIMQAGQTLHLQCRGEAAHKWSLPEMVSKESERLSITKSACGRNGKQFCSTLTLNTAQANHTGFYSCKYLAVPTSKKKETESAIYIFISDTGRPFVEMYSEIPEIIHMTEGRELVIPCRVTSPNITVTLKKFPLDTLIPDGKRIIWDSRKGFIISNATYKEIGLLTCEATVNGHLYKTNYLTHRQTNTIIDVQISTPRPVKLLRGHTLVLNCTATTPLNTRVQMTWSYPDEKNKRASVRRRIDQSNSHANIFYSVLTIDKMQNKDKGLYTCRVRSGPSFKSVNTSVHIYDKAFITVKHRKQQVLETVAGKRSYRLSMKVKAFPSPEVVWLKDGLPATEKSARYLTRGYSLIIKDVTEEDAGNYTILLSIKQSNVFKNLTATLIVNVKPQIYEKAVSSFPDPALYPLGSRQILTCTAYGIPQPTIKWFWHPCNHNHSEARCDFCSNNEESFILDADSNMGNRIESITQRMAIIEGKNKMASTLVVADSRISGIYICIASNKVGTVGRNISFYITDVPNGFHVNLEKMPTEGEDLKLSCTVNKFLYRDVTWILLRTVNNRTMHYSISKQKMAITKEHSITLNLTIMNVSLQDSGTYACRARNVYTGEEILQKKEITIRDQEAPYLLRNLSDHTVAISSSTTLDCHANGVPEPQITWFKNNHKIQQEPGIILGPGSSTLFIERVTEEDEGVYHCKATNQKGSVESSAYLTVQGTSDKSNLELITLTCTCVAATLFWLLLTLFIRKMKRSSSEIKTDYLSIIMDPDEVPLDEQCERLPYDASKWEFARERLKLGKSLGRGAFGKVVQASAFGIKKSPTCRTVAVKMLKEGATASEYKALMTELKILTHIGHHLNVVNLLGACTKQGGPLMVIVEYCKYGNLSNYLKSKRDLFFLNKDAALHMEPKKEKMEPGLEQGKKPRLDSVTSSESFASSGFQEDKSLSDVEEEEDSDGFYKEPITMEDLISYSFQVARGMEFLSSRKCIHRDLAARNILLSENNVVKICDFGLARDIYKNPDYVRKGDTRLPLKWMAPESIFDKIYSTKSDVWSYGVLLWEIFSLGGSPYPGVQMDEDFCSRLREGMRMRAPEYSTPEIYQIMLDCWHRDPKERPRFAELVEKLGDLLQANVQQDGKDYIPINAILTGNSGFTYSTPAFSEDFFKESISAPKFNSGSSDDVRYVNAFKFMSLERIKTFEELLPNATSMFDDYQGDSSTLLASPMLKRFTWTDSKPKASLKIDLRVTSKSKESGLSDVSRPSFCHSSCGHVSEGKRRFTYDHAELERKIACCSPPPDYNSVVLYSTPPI
Nature of the assay: Upstate KinaseProfiler enzyme assay, Flt 1. The settings on record: 500 nM compound; read-out: Percent inhibition at 500 nM Flt 1(h). An outline of the steps:
as §3

In assay [5] the target is T5, Flt 4(h) (Homo sapiens, UniProt P35916).
T5 construct: purchased Upstate Biotechnology (Dundee, UK), KinaseProfiler service
T5 sequence (P35916 25-1363): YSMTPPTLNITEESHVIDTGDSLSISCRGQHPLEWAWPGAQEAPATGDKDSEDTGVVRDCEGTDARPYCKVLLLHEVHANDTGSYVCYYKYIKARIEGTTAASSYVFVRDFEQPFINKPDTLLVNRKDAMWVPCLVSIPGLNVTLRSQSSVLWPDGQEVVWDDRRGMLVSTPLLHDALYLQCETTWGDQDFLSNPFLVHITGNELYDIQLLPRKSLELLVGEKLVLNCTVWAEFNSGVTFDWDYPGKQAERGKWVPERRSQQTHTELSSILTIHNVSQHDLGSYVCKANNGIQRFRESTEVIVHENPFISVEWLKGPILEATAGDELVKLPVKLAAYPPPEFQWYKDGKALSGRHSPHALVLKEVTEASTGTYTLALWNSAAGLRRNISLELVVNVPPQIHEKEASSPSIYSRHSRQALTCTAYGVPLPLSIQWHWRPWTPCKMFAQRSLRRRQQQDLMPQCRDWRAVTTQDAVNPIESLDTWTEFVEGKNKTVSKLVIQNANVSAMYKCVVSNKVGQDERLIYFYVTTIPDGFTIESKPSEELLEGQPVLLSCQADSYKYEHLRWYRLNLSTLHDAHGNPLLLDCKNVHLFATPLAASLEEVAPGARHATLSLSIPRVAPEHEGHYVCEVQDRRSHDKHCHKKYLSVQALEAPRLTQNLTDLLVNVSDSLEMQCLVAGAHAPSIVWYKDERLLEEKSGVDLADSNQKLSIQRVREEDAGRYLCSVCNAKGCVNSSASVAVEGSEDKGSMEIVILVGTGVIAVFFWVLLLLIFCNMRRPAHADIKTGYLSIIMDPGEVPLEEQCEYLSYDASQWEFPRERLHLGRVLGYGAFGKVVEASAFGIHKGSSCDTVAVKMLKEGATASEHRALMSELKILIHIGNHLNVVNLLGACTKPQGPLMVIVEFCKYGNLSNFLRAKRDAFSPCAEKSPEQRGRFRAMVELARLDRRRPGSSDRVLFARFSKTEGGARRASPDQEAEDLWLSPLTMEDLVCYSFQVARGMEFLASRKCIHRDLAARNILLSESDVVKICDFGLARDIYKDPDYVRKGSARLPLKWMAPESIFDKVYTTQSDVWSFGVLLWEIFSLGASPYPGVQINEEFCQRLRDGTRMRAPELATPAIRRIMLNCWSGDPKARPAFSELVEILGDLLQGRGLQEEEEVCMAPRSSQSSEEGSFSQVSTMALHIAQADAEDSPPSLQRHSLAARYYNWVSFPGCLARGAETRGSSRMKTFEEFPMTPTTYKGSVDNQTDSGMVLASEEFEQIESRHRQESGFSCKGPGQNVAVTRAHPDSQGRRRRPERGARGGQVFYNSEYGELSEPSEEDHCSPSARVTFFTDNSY
Nature of the assay: Upstate KinaseProfiler enzyme assay, Flt 4. The conditions noted are these: 500 nM compound; read-out: Percent inhibition at 500 nM Flt 4(h). An outline of the steps: as §3

Some results are limits rather than exact numbers.

`COc1ccc(Nc2nccc(Sc3ccc(NC(=O)CC#N)cc3)n2)cc1OC` [Compound 101, 2-cyano-N-(4-(2-(3,4-dimethoxyphenylao)pyrimidin-4-ylthio)phenyl)acetamide]: the IC50 in assay [1] was below 100 nM.

Turning to `COc1cc(Nc2nccc(Sc3ccc(NCC#N)cc3)n2)cc(OC)c1OC` [Compound 52, 2-(4-(2-(3,4,5-trimethoxyphenylao)pyrimidin-4-ylthio)phenylao)acetonitrile], in assay [2], the IC50 was below 500 nM.

For `C=CC(=O)Nc1ccc(Sc2nc(Nc3ccc(N4CCOCC4)cc3)ncc2C)cc1` [Compound 124, N-(4-(5-methyl-2-(4-morpholinophenylao)pyrimidin-4-ylthio)phenyl)acrylamide], the IC50 in assay [1] was below 500 nM. Moreover, the inhibition at 0.5 µM in assay [3], in assay [4] and in assay [5] was 100% in each case.
